Experimental data as given in patent US20260297060A1, “COMPOUNDS FOR THE DEGRADATION OF MUTANT BRAF” (C4 THERAPEUTICS, INC., priority 2023, published 2026).
Read-outs that look alike come from different tables or passages of the source.

Molecular target: T1, BRAF V600E (Homo sapiens, UniProt P15056+Q96SW2, V600E)
T1 construct: knock-in of the HiBiT tag to the endogenous BRAF V600E locus; host or cells: A375.10 (A375 clonal line, CRISPR HiBiT knock-in at the endogenous BRAF V600E locus)
Assay: BRAF V600E HiBiT Degradation Assay
Format: cell-based
How it was run: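 Endogenous HiBiT knock-in on BRAF V600E in A375 cells (clone A375.10); 11-point half-log series, top 10 μM, 2, 6 or 24 h at 37° C. Lytic HiBiT luminescence, background-subtracted, normalized to DMSO; 4-parameter fit gives DC50, Emax (residual protein) and IP (inflection point).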

[1] = A375.10 cells, BRAF V600E, 2 hours, inflection point, read-out: HiBiT-Degradation A375.10 BRAF 2 hours IP
[2] = A375.10 cells, BRAF V600E, 2 hours, read-out: HiBiT-Degradation A375.10 BRAF 2 hours DC50
[3] = A375.10 cells, BRAF V600E, 2 hours, residual protein remaining, read-out: HiBiT-Degradation A375.10 BRAF 2 hours Emax
[4] = A375.10 cells, BRAF V600E, 6 hours, inflection point, read-out: HiBiT-Degradation A375.10 BRAF 6 hours IP
[5] = A375.10 cells, BRAF V600E, 6 hours, read-out: HiBiT-Degradation A375.10 BRAF 6 hours DC50
[6] = A375.10 cells, BRAF V600E, 6 hours, residual protein remaining, read-out: HiBiT-Degradation A375.10 BRAF 6 hours Emax
[7] = A375.10 cells, HiBiT, BRAF V600E, 24 hours, read-out: HiBiT-Degradation A375.10 BRAF 24 hours DC50
[8] = A375.10 cells, HiBiT, BRAF V600E, 24 hours, read-out: HiBiT-Degradation A375.10 BRAF 24 hours Emax
[9] = A375.10 cells, HiBiT, BRAF V600E, 24 hours, read-out: HiBiT-Degradation A375.10 BRAF 24 hours IP
[10] = read-out: HiBiT-Degradation A375.10 BRAF 2 hours Emax, A375.10 cells, BRAF V600E, 2 hours, residual protein remaining

T1 sequence (P15056 whole entry V600E): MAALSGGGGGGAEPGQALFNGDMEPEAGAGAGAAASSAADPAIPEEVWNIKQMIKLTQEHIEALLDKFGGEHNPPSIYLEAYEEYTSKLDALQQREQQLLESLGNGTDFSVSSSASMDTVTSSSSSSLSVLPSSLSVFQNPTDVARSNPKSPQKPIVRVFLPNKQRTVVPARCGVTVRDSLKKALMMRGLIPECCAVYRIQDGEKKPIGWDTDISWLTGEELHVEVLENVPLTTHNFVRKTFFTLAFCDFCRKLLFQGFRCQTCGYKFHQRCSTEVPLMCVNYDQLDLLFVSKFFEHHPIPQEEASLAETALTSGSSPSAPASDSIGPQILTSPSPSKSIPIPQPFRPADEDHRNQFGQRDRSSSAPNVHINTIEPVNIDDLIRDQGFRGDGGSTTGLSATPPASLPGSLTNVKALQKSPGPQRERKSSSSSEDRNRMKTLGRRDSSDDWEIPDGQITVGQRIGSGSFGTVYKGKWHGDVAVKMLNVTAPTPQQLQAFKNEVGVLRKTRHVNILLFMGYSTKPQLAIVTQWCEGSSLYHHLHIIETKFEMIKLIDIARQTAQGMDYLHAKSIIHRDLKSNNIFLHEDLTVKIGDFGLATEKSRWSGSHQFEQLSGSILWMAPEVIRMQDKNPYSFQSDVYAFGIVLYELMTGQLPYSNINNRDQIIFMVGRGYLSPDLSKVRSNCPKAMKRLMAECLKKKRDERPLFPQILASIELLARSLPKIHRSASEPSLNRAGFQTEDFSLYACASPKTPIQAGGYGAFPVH
T1 sequence (Q96SW2 whole entry): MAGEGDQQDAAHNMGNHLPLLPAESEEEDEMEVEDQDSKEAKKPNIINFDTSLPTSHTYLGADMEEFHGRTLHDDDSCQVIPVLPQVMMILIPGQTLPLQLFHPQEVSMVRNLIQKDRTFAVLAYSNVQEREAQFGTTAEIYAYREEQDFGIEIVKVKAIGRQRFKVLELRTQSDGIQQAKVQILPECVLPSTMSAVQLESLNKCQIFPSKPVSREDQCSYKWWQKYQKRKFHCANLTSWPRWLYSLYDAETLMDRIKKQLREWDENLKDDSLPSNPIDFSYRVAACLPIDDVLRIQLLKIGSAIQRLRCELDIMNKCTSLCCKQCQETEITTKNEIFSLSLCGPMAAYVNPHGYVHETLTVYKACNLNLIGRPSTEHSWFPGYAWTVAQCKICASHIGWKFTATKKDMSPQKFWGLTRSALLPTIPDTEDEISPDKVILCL
T1 sequence (Q16531 whole entry partner): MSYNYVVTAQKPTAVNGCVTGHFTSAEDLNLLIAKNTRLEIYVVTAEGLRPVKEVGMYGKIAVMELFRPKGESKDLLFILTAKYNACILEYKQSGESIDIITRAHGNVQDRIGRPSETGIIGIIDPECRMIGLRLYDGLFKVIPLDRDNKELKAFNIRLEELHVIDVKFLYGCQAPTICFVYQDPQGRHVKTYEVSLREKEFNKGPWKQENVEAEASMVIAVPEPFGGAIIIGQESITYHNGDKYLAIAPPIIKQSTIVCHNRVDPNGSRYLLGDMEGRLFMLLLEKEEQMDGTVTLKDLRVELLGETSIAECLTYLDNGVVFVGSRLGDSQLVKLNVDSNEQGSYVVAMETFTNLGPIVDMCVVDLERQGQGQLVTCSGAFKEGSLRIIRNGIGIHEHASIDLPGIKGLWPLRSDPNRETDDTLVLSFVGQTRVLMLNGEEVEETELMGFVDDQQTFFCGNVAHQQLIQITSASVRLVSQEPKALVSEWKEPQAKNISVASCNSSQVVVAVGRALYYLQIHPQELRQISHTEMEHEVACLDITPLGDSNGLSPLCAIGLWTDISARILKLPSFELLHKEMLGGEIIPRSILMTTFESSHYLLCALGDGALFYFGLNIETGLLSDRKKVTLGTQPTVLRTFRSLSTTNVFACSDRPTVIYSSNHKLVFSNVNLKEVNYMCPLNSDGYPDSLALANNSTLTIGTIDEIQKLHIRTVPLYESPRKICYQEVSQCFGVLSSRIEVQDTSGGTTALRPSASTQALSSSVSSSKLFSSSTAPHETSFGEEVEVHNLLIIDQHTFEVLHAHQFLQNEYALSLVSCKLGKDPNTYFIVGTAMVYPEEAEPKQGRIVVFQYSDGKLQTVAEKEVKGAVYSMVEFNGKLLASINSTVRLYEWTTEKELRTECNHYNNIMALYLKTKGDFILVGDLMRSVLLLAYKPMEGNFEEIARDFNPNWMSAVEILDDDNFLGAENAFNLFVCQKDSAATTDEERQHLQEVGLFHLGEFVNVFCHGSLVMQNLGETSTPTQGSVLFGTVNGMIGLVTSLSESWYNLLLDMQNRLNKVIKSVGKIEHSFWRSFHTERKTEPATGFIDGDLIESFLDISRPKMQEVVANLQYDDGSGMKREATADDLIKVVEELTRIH

DC50 [1] [nM] | DC50 [2] [nM] | Emax [3] [%] | DC50 [4] [nM] | DC50 [5] [nM] | Emax [6] [%] | DC50 [7] [nM] | Emax [8] [%] | DC50 [9] [nM] | Emax [10] [%] | SMILES
< 1000 | < 1000 | < 50 | < 1000 | < 1000 | < 50 | < 1000 | < 50 | < 1000 | – | CC(C)S(=O)(=O)Nc1ccc(F)c(Oc2ccc3ncn([C@H]4COC5(CCN(C6CCC(c7cc8c(cc7F)c(N7CCC(=O)NC7=O)nn8C)CC6)CC5)C4)c(=O)c3c2)c1C#N (single isomer, unassigned) [Compound 87]
< 1000 | < 1000 | – | < 1000 | < 1000 | < 50 | < 1000 | < 50 | < 1000 | < 50 | Cn1nc(N2CCC(=O)NC2=O)c2cc(F)c(C3CCC(N4CCC5(CC4)CC(n4cnc6ccc(Oc7c(F)ccc(NS(=O)(=O)C8CCCC8)c7C#N)cc6c4=O)C5)CC3)cc21 (single isomer, unassigned) [Compound 93, N-[2-cyano-3-[3-[7-[4-[3-(2,4-dioxohexahydropyrimidin-1-yl)-5-fluoro-1-methyl-indazol-6-yl]cyclohexyl]-7-azaspiro[3.5]nonan-2-yl]-4-oxo-quinazolin-6-yl]oxy-4-fluoro-phenyl]cyclopentanesulfonamide]
< 1000 | < 1000 | < 50 | < 1000 | < 1000 | < 50 | < 1000 | < 50 | < 1000 | – | CC(C)S(=O)(=O)Nc1ccc(F)c(Oc2ccc3ncn(C4CC5(CCN(C6CCC(c7cc8c(cc7F)c(N7CCC(=O)NC7=O)nn8C)CC6)CC5)C4)c(=O)c3c2)c1C#N (single isomer, unassigned) [Compound 95, N-[2-cyano-3-[3-[7-[4-[3-(2,4-dioxohexahydropyrimidin-1-yl)-5-fluoro-1-methyl-indazol-6-yl]cyclohexyl]-7-azaspiro[3.5]nonan-2-yl]-4-oxo-quinazolin-6-yl]oxy-4-fluoro-phenyl]propane-2-sulfonamide]
< 1000 | < 1000 | < 50 | < 1000 | < 1000 | < 50 | < 1000 | < 50 | < 1000 | – | CO[C@@H]1CCN(S(=O)(=O)Nc2ccc(F)c(Oc3ccc4ncn([C@H]5COC6(CCN(C7CCC(c8cc9c(cc8F)c(N8CCC(=O)NC8=O)nn9C)CC7)CC6)C5)c(=O)c4c3)c2C#N)C1 (single isomer, unassigned) [Compound 100]
< 1000 | < 1000 | < 50 | < 1000 | < 1000 | < 50 | < 1000 | < 50 | < 1000 | – | Cn1nc(N2CCC(=O)NC2=O)c2cc(F)c(C3CCC(N4CCC5(CC4)C[C@@H](n4cnc6ccc(Oc7c(F)ccc(NS(=O)(=O)C8CCCC8)c7C#N)cc6c4=O)CO5)CC3)cc21 (single isomer, unassigned) [Compound 113]
< 1000 | < 1000 | < 50 | < 1000 | < 1000 | < 50 | < 1000 | < 50 | < 1000 | – | CO[C@H]1CCN(S(=O)(=O)Nc2ccc(F)c(Oc3ccc4ncn([C@H]5COC6(CCN(C7CCC(c8cc9c(cc8F)c(N8CCC(=O)NC8=O)nn9C)CC7)CC6)C5)c(=O)c4c3)c2C#N)C1 (single isomer, unassigned) [Compound 115]
< 1000 | < 1000 | < 50 | < 1000 | < 1000 | < 50 | < 1000 | < 50 | < 1000 | – | Cn1nc(N2CCC(=O)NC2=O)c2cc(F)c(C3CCC(N4CCC5(CC4)C[C@@H](n4cnc6ccc(Oc7c(F)ccc(NS(=O)(=O)N8CC[C@@H](F)C8)c7C#N)cc6c4=O)CO5)CC3)cc21 (single isomer, unassigned) [Compound 121]

Further lines, the compound ahead of its results:

SMILES | DC50 [1] [nM] | DC50 [2] [nM] | Emax [3] [%] | DC50 [4] [nM] | DC50 [5] [nM] | Emax [6] [%] | DC50 [7] [nM] | Emax [8] [%] | DC50 [9] [nM] | Emax [10] [%]
CCN(C)S(=O)(=O)Nc1ccc(F)c(Nc2ccc3ncn([C@@H]4COC5(CCN(C6CCC(c7ccc(NC8CCC(=O)NC8=O)cc7F)CC6)CC5)C4)c(=O)c3c2F)c1C#N (single isomer, unassigned) [Compound 90] | < 1000 | < 1000 | < 50 | < 1000 | < 1000 | < 50 | < 1000 | < 50 | < 1000 | –
CC(C)S(=O)(=O)Nc1ccc(F)c(Oc2ccc3ncn([C@H]4COC5(CCN(C6CCC(c7ccc(NC8CCC(=O)NC8=O)cc7F)CC6)CC5)C4)c(=O)c3c2)c1C#N (single isomer, unassigned) [Compound 92] | < 1000 | < 1000 | < 50 | < 1000 | < 1000 | < 50 | < 1000 | < 50 | < 1000 | –
CO[C@@H]1CCN(S(=O)(=O)Nc2ccc(F)c(Oc3ccc4ncn(C5CC6(CCN(C7CCC(c8cc9c(cc8F)c(N8CCC(=O)NC8=O)nn9C)CC7)CC6)C5)c(=O)c4c3)c2C#N)C1 (single isomer, unassigned) [Compound 101] | < 1000 | < 1000 | < 50 | < 1000 | < 1000 | < 50 | < 1000 | < 50 | < 1000 | –
CO[C@H]1CCN(S(=O)(=O)Nc2ccc(F)c(Oc3ccc4ncn(C5CC6(CCN(C7CCC(c8cc9c(cc8F)c(N8CCC(=O)NC8=O)nn9C)CC7)CC6)C5)c(=O)c4c3)c2C#N)C1 (single isomer, unassigned) [Compound 103] | < 1000 | < 1000 | < 50 | < 1000 | < 1000 | < 50 | < 1000 | < 50 | < 1000 | –
CO[C@@H]1CCN(S(=O)(=O)Nc2ccc(F)c(Oc3ccc4ncn([C@H]5COC6(CCN(C7CCC(c8ccc(NC9CCC(=O)NC9=O)cc8F)CC7)CC6)C5)c(=O)c4c3)c2C#N)C1 (single isomer, unassigned) [Compound 109] | < 1000 | < 1000 | < 50 | < 1000 | < 1000 | < 50 | < 1000 | < 50 | < 1000 | –
CCN(C)S(=O)(=O)Nc1ccc(F)c(Oc2ccc3ncc(OC4CCN(C5CCC(c6ccc(NC7CCC(=O)NC7=O)cc6F)CC5)CC4)nc3c2)c1C#N (single isomer, unassigned) [Compound 110, 7-[2-cyano-3-[[ethyl(methyl)sulfamoyl]amino]-6-fluoro-phenoxy]-2-[[1-[4-[4-[(2,6-dioxo-3-piperidyl)amino]-2-fluoro-phenyl]cyclohexyl]-4-piperidyl]oxy]quinoxaline] | < 1000 | < 1000 | 50 to 90 | < 1000 | < 1000 | < 50 | < 1000 | < 50 | < 1000 | –
CCN(C)S(=O)(=O)Nc1ccc(F)c(Oc2ccc3ncc(OCC4CCN(C5CCC(c6cc7c(cc6F)c(N6CCC(=O)NC6=O)nn7C)CC5)CC4)nc3c2)c1C#N (single isomer, unassigned) [Compound 118, 7-[2-cyano-3-[[ethyl(methyl)sulfamoyl]amino]-6-fluoro-phenoxy]-2-[[1-[4-[3-(2,4-dioxohexahydropyrimidin-1-yl)-5-fluoro-1-methyl-indazol-6-yl]cyclohexyl]-4-piperidyl]methoxy]quinoxaline] | < 1000 | < 1000 | – | < 1000 | < 1000 | < 50 | < 1000 | < 50 | < 1000 | 50 to 90
Cn1nc(N2CCC(=O)NC2=O)c2cc(F)c(C3CCC(N4CCC5(CC4)CC(n4cnc6ccc(Oc7c(F)ccc(NS(=O)(=O)N8CC[C@@H](F)C8)c7C#N)cc6c4=O)C5)CC3)cc21 (single isomer, unassigned) [Compound 122] | < 1000 | < 1000 | < 50 | < 1000 | < 1000 | < 50 | < 1000 | < 50 | < 1000 | –
CCN(C)S(=O)(=O)Nc1ccc(F)c(Oc2ccc3ncn(CC4CCN(C5CCC(c6cc7c(cc6F)c(N6CCC(=O)NC6=O)nn7C)CC5)CC4)c(=O)c3c2)c1C#N (single isomer, unassigned) [Compound 126, 6-[2-cyano-3-[[ethyl(methyl)sulfamoyl]amino]-6-fluoro-phenoxy]-3-[[1-[4-[3-(2,4-dioxohexahydropyrimidin-1-yl)-5-fluoro-1-methyl-indazol-6-yl]cyclohexyl]-4-piperidyl]methyl]-4-oxo-quinazoline] | < 1000 | < 1000 | < 50 | < 1000 | < 1000 | < 50 | < 1000 | < 50 | < 1000 | –
